Assay results reported in US20240316020A1, “Novel Pyridine Compounds” (ICAGEN, LLC, priority 2021, published 2024).

Experiments:
human Kv7.2 = human Kv7.2 (Homo sapiens (Human), UniProt O43526); assay: SyncroPatch 384 electrophysiology, CHO cells stably expressing human Kv7.2; type: cell-based
Experimental: (§1) The potency of Kv7 potentiators was determined using the SyncroPatch 384 (Nanion) high throughput electrophysiology platform.
(§2) CHO cells stably expressing either human Kv7.2, Kv7.4 or Kv7.5/7.3 under a constitutive CMV promoter were used for these studies. Cells were maintained in F12 Hams+1 mM L-glutamine (Hyclone) supplemented with 10% FBS (Sigma), 0.3×NEAA (Non-essential Gamino-acids) and 400 ug/ml G418 at 37° C. in 5% CO2. Cells were cultured in T-225 flasks (Nunc) for 2-3 days to reach 85-95% confluence prior to electrophysiological recording.
(§3) Earle's balanced salt solution (in mM): 135 NaCl, 5.4 KCl, 5 Glucose, 2 CaCl2, 1 MgCl2, 5 HEPES, pH 7.4. Seal enhancer solution (in mM): 90 NaCl, 3 KCl, 35 CaCl2, 10 MgCl2, 10 HEPES, pH 7.4. Extracellular recording solution (in mM): 71 NaCl, 70 NMDG, 13 KCl, 5 Glucose, 2 CaCl2, 1 MgCl2, 10 HEPES, pH 7.4. Intracellular recording solution (in mM): 130 KF, 20 KCl, 4 EGTA, 10 HEPES, 2 EDTA, 0.01 Escin, pH 7.2.
(§4) Cells were harvested for electrophysiological recording upon reaching appropriate confluence. Cells were first washed in DPBS (Hyclone, Cat #SH30028.03) and then 2 ml of Accutase (MP Biomedicals #1000449) was added at 28° C. until ˜90% of cells were suspended. F12 HAM's media+1 mM L-glutamine (Hyclone, SH30026.02) was then added to the flask to dilute the accutase. Cells were then triturated until a single cell suspension was achieved, a cell count was performed, and cells were centrifuged for 2 min. at 1,000 rpm. Media was then aspirated, and cells were resuspended in Earle's balanced salt solution to a concentration of 0.75×10^6 cells/ml and allowed to recover for 25 min at 10° C.
(§5) At the beginning of each assay, 20 μl of cell suspension was dispensed into each well of a multi-hole 384-well SyncroPatch chip by the onboard pipettor. Cell sealing was initiated, and seal enhancer solution was added to facilitate seal formation. Upon completion of sealing, cells were washed 3 times with extracellular recording solution and the assay voltage protocol was started. Human Kv7.2, Kv7.4 or Kv7.5/7.3 channels were evaluated using a voltage protocol in which cells were voltage-clamped at a holding potential of −60 mV. Potassium currents were continuously activated with a series of three voltage steps to −30 mV for 3 seconds, 40 mV for 1 second and −90 mV for 4 seconds with 12 seconds between successive voltage sweeps. Potassium currents were measured from the −90 mV repolarizing step. Baseline current was assessed for 3.5 minutes prior to the addition of 5.6 μM zinc pyrithione (1 μM for Kv7.4). Kv7.2, Kv7.4 or Kv7.5/7.3 current in the presence of zinc pyrithione was acquired over five minutes to allow channels to reach steady state activity prior to addition of test agents. Channel activity was monitored for three minutes preceding the addition of 30 μM ML-213 (3 minutes) to achieve maximum activation.
(§6) Data were collected on the SyncroPatch platform using PatchControl software (Nanion) and processed and analyzed using DataControl Software (Nanion). Percent activation was calculated from potassium current as follows: The average current for the 5 sweeps in the presence of zinc pyrithione immediately preceding test agent addition was taken as the ‘control’ data. Likewise, the average potassium current in the presence of test agents 5 sweeps immediately preceding addition of 30 μM ML-213 was determined for ‘drug’ data. The average potassium current 5 sweeps immediately prior to addition of 150 mM TEA+10 μM XE-991 was determined for ‘max activation’ data while average currents from 5 sweeps immediately following addition of TEA was determined for ‘max inhibition’ data. Percent activation for each of the 384-wells of a sealchip was calculated as ((‘drug’−‘max inhibition’)/(‘max activation’−‘max inhibition’))*100 with Pipeline Pilot (Accelrys). […]

[1] = Human liver microsomal clearance; type: in vitro ADME; conditions: both sexes, liver microsomes, Table B, 0.5 μM compound, 0.25 mg/mL microsomes, NADPH, 37° C., read-out: Human liver microsomal intrinsic clearance CLint
Experimental: Pooled mixed gender human liver microsomes were purchased from BioIVT at a concentration of 20 mg protein/mL and stored at −80° C. Incubations were conducted in V-bottomed 350 μL polypropylene 96-well plates. Compounds were diluted in phosphate buffer (final concentrations 0.5 μM compound, 0.5% DMSO) and mixed with diluted liver microsomes (fc 0.25 mg/mL). This mixture was aliquoted onto the assay plate (six wells per compound) and pre-warmed at 37° C. for ten minutes. Addition of NADPH (fc 0.5 mM, final incubation volume 100 μL) to each well started the time course. Reactions were stopped at 0.5, 3, 5, 10, 20 & 30 minutes by addition of 150 μL acetonitrile containing internal standard (IS; 0.125 μg/mL daidzein) and stopped samples were removed to a clean polypropylene plate. At the end of the assay the plate was refrigerated for an hour and then centrifuged at 3000 rpm for 10 minutes at 4° C. A sample of the supernatant was removed to a fresh plate and diluted 10-fold with 50:50 acetonitrile:water, then heat sealed. Analysis was by liquid chromatography coupled with tandem mass spectrometry (LC-MS/MS) for analyte and IS levels. Ratios of the analyte and IS peak areas were generated for results calculation (IS ratio). Dextromethorphan and verapamil were included in each experiment as controls for high clearance compounds. IS ratio data were converted into natural log values which were plotted against time and a linear regression fit applied. The slope of the line was returned and converted into the elimination constant (kel) by multiplying by −1. The elimination constant was used to calculate the in vitro CLint: in vitro CLint (μL/min/mg protein) is kel* (1000/protein conc in mg/mL).

human Kv7.5/7.3 = human Kv7.5/7.3 (Homo sapiens (Human), UniProt O43525+Q9NR82); assay: SyncroPatch 384 electrophysiology, CHO cells stably expressing human Kv7.5/7.3; type: cell-based; conditions: Table A; for Kv7.5/7.3/Kv7.2 selectivity ratio: Kv7.5/7.3 EC50 over Kv7.2 EC50
Chain of human Kv7.5/7.3 (Q9NR82 whole entry): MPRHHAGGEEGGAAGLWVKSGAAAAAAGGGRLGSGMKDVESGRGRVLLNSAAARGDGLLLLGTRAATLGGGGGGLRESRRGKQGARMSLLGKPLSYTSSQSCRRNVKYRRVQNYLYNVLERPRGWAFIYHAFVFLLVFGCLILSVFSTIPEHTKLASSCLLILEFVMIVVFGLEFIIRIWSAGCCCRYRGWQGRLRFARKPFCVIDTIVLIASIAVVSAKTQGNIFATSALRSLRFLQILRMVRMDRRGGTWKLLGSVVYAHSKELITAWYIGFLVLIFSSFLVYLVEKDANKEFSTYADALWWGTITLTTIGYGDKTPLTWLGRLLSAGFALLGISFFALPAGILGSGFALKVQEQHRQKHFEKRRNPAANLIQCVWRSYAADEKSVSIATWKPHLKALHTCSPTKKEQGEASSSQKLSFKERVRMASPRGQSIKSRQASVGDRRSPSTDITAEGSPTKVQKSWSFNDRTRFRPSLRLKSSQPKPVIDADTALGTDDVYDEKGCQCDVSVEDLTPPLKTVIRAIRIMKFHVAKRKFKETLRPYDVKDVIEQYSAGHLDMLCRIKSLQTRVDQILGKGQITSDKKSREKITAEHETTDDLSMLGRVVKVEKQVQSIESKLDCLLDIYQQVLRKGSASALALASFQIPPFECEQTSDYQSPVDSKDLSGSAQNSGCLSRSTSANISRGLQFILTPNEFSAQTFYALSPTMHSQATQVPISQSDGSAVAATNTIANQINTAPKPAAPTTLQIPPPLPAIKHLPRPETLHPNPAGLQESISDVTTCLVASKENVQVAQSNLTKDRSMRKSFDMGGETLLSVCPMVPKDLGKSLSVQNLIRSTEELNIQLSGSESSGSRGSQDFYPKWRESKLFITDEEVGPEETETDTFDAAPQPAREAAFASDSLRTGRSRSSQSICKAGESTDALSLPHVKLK
Chain of human Kv7.5/7.3 (O43525 whole entry): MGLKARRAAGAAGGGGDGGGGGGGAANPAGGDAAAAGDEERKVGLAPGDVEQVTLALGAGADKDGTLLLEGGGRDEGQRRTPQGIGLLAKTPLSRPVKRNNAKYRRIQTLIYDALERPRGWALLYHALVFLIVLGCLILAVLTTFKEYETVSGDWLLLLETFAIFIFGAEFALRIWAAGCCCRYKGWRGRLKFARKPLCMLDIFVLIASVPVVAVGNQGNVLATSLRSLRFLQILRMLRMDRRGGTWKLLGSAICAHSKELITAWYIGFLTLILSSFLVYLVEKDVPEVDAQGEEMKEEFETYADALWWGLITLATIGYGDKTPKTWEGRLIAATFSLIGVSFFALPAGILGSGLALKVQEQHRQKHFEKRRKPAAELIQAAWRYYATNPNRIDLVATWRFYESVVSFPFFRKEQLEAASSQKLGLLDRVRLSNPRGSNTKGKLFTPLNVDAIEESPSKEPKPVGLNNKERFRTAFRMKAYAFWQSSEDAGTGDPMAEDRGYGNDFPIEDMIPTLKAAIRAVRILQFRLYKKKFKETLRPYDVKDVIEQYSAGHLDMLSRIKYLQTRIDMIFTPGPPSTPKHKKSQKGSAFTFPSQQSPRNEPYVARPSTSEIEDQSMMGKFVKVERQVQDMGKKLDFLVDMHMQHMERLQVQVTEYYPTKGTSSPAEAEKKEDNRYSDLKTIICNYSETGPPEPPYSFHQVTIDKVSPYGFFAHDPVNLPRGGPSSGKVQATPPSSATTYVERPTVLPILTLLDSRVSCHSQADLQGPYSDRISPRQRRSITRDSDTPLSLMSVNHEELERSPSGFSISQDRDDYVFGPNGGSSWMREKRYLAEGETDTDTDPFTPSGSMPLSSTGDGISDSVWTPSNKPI
Experimental: as §1, §2, §3, §4, §5, §6

human Kv7.4 = human Kv7.4 (Homo sapiens (Human), UniProt P56696); assay: SyncroPatch 384 electrophysiology, CHO cells stably expressing human Kv7.4; type: cell-based; conditions: Table C; for Kv7.4/Kv7.2 selectivity ratio: Kv7.4 EC50 over Kv7.2 EC50
Chain of human Kv7.4 (P56696 whole entry): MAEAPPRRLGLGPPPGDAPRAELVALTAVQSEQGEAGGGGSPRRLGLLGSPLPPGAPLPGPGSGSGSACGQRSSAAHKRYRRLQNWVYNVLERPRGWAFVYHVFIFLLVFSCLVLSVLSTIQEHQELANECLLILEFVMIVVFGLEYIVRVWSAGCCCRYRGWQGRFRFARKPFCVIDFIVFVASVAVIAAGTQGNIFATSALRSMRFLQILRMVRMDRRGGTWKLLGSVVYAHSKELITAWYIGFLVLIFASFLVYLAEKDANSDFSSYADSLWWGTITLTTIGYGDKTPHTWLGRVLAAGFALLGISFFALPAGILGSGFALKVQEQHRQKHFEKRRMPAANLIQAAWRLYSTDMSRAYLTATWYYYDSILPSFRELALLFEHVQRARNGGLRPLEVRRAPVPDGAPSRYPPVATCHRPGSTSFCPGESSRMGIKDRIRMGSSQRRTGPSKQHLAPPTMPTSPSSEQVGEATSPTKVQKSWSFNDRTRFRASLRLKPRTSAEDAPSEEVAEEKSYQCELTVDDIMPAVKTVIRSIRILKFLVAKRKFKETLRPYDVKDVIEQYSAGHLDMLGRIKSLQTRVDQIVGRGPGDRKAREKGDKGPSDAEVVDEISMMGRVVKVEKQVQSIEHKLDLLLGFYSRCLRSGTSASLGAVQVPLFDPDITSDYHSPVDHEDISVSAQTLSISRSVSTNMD
Experimental: as §1, §2, §3
Cells were harvested for electrophysiological recording upon reaching appropriate confluence. Cells were first washed in DPBS (Hyclone, Cat #SH30028.03) and then 2 ml of Accutase (MP Biomedicals #1000449) was added at 28° C. until ˜90% of cells were suspended. F12 HAM's media+1 mM L-glutamine (Hyclone, SH30026.02) was then added to the flask to dilute the accutase. […]
At the beginning of each assay, 20 μl of cell suspension was dispensed into each well of a multi-hole 384-well SyncroPatch chip by the onboard pipettor. […] Human Kv7.2, Kv7.4 or Kv7.5/7.3 channels were evaluated using a voltage protocol in which cells were voltage-clamped at a holding potential of −60 mV. […] Potassium currents were measured from the −90 mV repolarizing step. Baseline current was assessed for 3.5 minutes prior to the addition of 5.6 μM zinc pyrithione (1 μM for Kv7.4). […] Channel activity was monitored for three minutes preceding the addition of 30 μM ML-213 (3 minutes) to achieve maximum activation.
as §6, with “data.” for “data. Percent activation for each of the 384-wells of a sealchip was calculated as ((‘drug’−‘max inhibition’)/(‘max activation’−‘max inhibition’))*100 with Pipeline Pilot (Accelrys).”

[2] = Table 1, CHO cells, potassium current at -90 mV step, in presence of zinc pyrithione

Chain of human Kv7.2 (O43526 whole entry): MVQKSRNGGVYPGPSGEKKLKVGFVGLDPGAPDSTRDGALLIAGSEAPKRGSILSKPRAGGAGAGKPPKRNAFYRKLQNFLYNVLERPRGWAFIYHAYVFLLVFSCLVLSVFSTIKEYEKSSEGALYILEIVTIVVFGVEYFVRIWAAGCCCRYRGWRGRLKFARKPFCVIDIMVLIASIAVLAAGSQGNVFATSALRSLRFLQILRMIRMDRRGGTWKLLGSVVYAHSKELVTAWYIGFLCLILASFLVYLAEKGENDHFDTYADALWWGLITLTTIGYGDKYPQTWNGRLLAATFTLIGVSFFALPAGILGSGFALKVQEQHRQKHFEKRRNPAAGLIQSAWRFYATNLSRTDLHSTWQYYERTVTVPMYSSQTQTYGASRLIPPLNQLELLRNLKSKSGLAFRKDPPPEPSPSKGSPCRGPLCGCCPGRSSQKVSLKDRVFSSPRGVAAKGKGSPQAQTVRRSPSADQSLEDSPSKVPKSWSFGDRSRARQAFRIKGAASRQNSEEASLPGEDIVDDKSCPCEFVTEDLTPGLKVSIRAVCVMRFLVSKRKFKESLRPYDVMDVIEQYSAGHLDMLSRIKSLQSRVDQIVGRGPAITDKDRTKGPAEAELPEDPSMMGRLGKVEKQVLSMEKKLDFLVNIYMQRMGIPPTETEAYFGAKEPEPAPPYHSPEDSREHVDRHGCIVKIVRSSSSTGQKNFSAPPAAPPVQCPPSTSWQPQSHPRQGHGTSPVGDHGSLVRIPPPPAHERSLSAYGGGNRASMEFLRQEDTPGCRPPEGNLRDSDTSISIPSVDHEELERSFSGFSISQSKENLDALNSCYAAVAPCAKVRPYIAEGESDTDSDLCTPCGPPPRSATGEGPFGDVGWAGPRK

Row | SMILES | EC50 (human Kv7.2; [2]) [nM] | microsomal CLint at 0.5 μM [1] [µL/min/mg] | EC50 (human Kv7.5/7.3) [nM] | Kv7.5/7.3/Kv7.2 selectivity ratio (human Kv7.5/7.3) | EC50 (human Kv7.2; Table A) [nM] | EC50 (human Kv7.2; Table C) [nM] | EC50 (human Kv7.4) [nM] | Kv7.4/Kv7.2 selectivity ratio (human Kv7.4)
1 | O=C(NCc1ccnc(OC(F)F)c1)N[C@H]1CC2(CCC2)[C@@H]1O (racemic) [Example 25, 1-[[2-(difluoromethoxy)pyridin-4-yl]methyl]-3-[rac-(2R,3R)-3-hydroxyspiro[3.3]heptan-2-yl]urea] | 740 | 14.2 | > 30000 | >41 | – | – | – | –
2 | O=C(NCc1ccnc(OC(F)F)c1)NC1CCOC2(CCCC2)C1 (stereo not shown) [Example 14, 1-[[2-(difluoromethoxy)pyridin-4-yl]methyl]-3-(6-oxaspiro[4.5]decan-9-yl)urea] | 260 | 20 | > 30000 | >116 | 260 | – | – | –
3 | O=C(NCc1ccnc(OC(F)F)c1)NC1CCOC2(CCC2)C1 (stereo not shown) [Example 17, 1-[[2-(difluoromethoxy)pyridin-4-yl]methyl]-3-(5-oxaspiro[3.5]nonan-8-yl)urea] | 340 | 3.8 | > 30000 | >87 | – | – | – | –
4 | O=C(NCc1ccnc(OC(F)F)c1)NC1CCOC2(CCCC2(F)F)C1 (stereo not shown) [Example 21, 1-[[2-(difluoromethoxy)pyridin-4-yl]methyl]-3-(4,4-difluoro-6-oxaspiro[4.5]decan-9-yl)urea] | 210 | 20.4 | > 30000 | >146 | 210 | 210 | > 30000 | >143
5 | O=C(NCc1ccnc(OC(F)F)c1)N[C@@H]1CCOC2(CCC2)C1 [Example 27, 1-[[2-(difluoromethoxy)pyridin-4-yl]methyl]-3-[(8R)-5-oxaspiro[3.5]nonan-8-yl]urea] | 260 | 20.5 | > 30000 | >115 | 260 | 260 | > 30000 | >115
6 | O=C(NCc1ccnc(OC(F)F)c1)NC1CCC2(CC1)CC2(F)F (stereo not shown) [Example 31, 1-[[2-(difluoromethoxy)pyridin-4-yl]methyl]-3-(2,2-difluorospiro[2.5]octan-6-yl)urea] | 140 | 18.8 | – | – | – | – | – | –
